Results: the supplement of paper PMC9386025

Experiments:
Test in all cases: drug sensitivity score (DSS) (DSS (dimensionless)); higher = more sensitive (stronger drug response)
FIMM-PDC6 = patient-derived ovarian cancer cells; details: genetic perturbation: none (patient-derived cell culture)
Method in brief: (§1)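 Ovarian cancer cell lines with shRNA induced by 100 ng/ml doxycycline for at least three days, along with patient-derived cultures, were seeded at 1 000 – 1 500 cells per well onto drugs pre-plated in 384-well plates at five concentrations over a 10,000-fold range and incubated for three days at 37 °C and 5.0 % CO2. CellTiter-Glo luminescence measured on a PHERAstar FS served as the viability readout, and each drug's dose-response curve was summarised as a drug sensitivity score following an earlier published method.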

FIMM-PDC5 = patient-derived ovarian cancer cells; details: genetic perturbation: none (patient-derived cell culture)
Method in brief: as §1

Kuramochi = test system: Kuramochi
Method in brief: as §1

FIMM-PDC7 = patient-derived ovarian cancer cells; details: genetic perturbation: none (patient-derived cell culture)
Method in brief: as §1

OVSAHO = test system: OVSAHO
Method in brief: as §1

FIMM-PDC3 = patient-derived ovarian cancer cells; details: genetic perturbation: none (patient-derived cell culture)
Method in brief: as §1

JHOS2 = test system: JHOS2
Method in brief: as §1

FIMM-PDC1 = patient-derived ovarian cancer cells; details: genetic perturbation: none (patient-derived cell culture)
Method in brief: as §1

FIMM-PDC4 = patient-derived ovarian cancer cells; details: genetic perturbation: none (patient-derived cell culture)
Method in brief: as §1

[1] = genetic perturbation: DOX-induced PTK7 shRNA knockdown
[2] = genetic perturbation: DOX-induced control shRNA

SMILES | drug sensitivity score (FIMM-PDC6) | drug sensitivity score (FIMM-PDC5) | drug sensitivity score (Kuramochi; [1]) | drug sensitivity score (Kuramochi; [2]) | drug sensitivity score (FIMM-PDC7) | drug sensitivity score (OVSAHO; [1]) | drug sensitivity score (OVSAHO; [2]) | drug sensitivity score (FIMM-PDC3) | drug sensitivity score (JHOS2; [1]) | drug sensitivity score (JHOS2; [2]) | drug sensitivity score (FIMM-PDC1) | drug sensitivity score (FIMM-PDC4)
Cc1ncc(-c2ccnc(Nc3ccc(S(C)(=O)=O)cc3)n2)n1C(C)C [AZD-5438] | 9.3 | 12.8 | 7.55 | 7.8 | 7.6 | 8.2 | 7 | 7.3 | 14.4 | 8.3 | 7.9 | 9.5
Cn1c(=O)n(-c2ccc(C(C)(C)C#N)cc2)c2c3cc(-c4cnc5ccccc5c4)ccc3ncc21 [Dactolisib] | 19 | 21.6 | 11.7 | 11.9 | 17 | 11.8 | 13.8 | 11.1 | 10.3 | 14.1 | 10.1 | 17.2
COc1c(OCCCN2CCOCC2)ccc2c1N=C(NC(=O)c1cnc(N)nc1)N1CCN=C21 [Copanlisib] | 10.2 | 17.3 | 6.95 | 4.6 | 11.1 | 7.8 | 10.5 | 6.2 | 4.4 | 5.8 | 7.3 | 12.4
CC(=O)O[C@@]12CO[C@@H]1C[C@H](O)[C@@]1(C)C(=O)[C@H](O)C3=C(C)[C@@H](OC(=O)[C@H](O)[C@@H](NC(=O)OC(C)(C)C)c4ccccc4)C[C@@](O)([C@@H](OC(=O)c4ccccc4)[C@H]21)C3(C)C [Docetaxel] | 7.4 | 21.5 | 18 | 4.4 | 7.2 | 7.6 | 13.5 | 21.6 | 20.3 | 12.7 | 15.6 | 18.8
CN1CCC(CNc2ccc3ncc(-c4cccc(OC(F)(F)F)c4)n3n2)CC1 [SGI-1776] | 6.8 | 6.9 | 5.3 | 5.7 | 9.1 | 7.9 | 7.2 | 6 | 6.2 | 5.9 | 5.6 | 6.8
COc1cccc2c1C(=O)c1c(O)c3c(c(O)c1C2=O)C[C@@](O)(C(C)=O)C[C@@H]3O[C@H]1C[C@H](N)[C@H](O)[C@H](C)O1 [Daunorubicin] | 7.4 | 10.7 | 4.2 | 4.6 | 9 | 8.3 | 4.4 | 7.8 | 4 | 5.6 | 4.65 | 8.4
Cn1cc(CNCC2CCN(c3ncc(C(=O)NO)cn3)CC2)c2ccccc21 [Quisinostat] | 11.8 | 14.6 | 17.4 | 6.5 | 8.6 | 13.6 | 12 | 16.5 | 10.9 | 12.5 | 11 | 5.1
N#CCNC(=O)c1ccc(-c2ccnc(Nc3ccc(N4CCOCC4)cc3)n2)cc1 [Momelotinib] | 4.2 | 7.2 | 0.75 | 2.1 | 8 | 3.6 | 1.7 | 1.9 | 8.3 | 6.8 | 0.1 | 4.1
C=CC(=O)Nc1cccc(Nc2nc(Nc3ccc(N4CCN(C(C)=O)CC4)cc3OC)ncc2C(F)(F)F)c1 [Rociletinib] | 10.3 | 10.3 | 4.75 | 4.6 | 10.7 | 9.1 | 5.1 | 7.6 | 3.6 | 2.1 | 5.2 | 10
C=C1C[C@@H]2CC[C@@]34C[C@H]5O[C@H]6[C@@H](O3)[C@H]3O[C@H](CC[C@@H]3O[C@H]6[C@H]5O4)CC(=O)C[C@@H]3[C@@H](OC)[C@@H](C[C@H](O)CN)O[C@H]3C[C@H]3O[C@@H](CC[C@@H]1O2)C[C@@H](C)C3=C [Eribulin] | 12.3 | 25.5 | 18.6 | 5.7 | 12.2 | 18.6 | 15.3 | 20.7 | 19 | 11.7 | 15.9 | 21.1
CCCCCCCCc1ccc(CCC(N)(CO)CO)cc1 [Fingolimod] | 5.7 | 8.3 | 7.4 | 5 | 7 | 6.4 | 6.1 | 5.8 | 7.1 | 5.3 | 5.8 | 7.2
O=C(/C=C/c1cccc(S(=O)(=O)Nc2ccccc2)c1)NO [Belinostat] | 13 | 12.3 | 17.6 | 7.6 | 10 | 15.2 | 9.7 | 14.1 | 13 | 9.4 | 9.65 | 5.5
COc1cc2ncnc(Nc3ccc(F)c(Cl)c3)c2cc1OCCCN1CCOCC1 [Gefitinib] | 13 | 18.6 | 4.3 | 3.3 | 10.7 | 7.7 | 4.1 | 10.9 | 3.5 | 3.5 | 3.4 | 15.2
CN(C)C1CCN(C(=O)c2ccc(NC(=O)Nc3ccc(-c4nc(N5CCOCC5)nc(N5CCOCC5)n4)cc3)cc2)CC1 [Gedatolisib] | 16.9 | 16.9 | 11.3 | 10.8 | 10.7 | 12.7 | 13.2 | 9 | 6.9 | 11.7 | 10.5 | 15.7
CON(C)C(=O)N1N=C(c2cc(F)ccc2F)S[C@@]1(CCCN)c1ccccc1 [Filanesib] | 6.6 | 17.4 | 10.3 | 1.1 | 2.9 | 7.8 | 6.8 | 10.7 | 9.2 | 3 | 6.65 | 12.3
COc1ncc(-c2ccc3nccc(-c4ccnnc4)c3c2)cc1NS(=O)(=O)c1ccc(F)cc1F [Omipalisib] | 16.5 | 21.9 | 17.8 | 10.8 | 20 | 17.7 | 17.7 | 17.7 | 9.3 | 10.5 | 11.7 | 19.8
COc1cc2c(Nc3ccc(Cl)c(Cl)c3F)ncnc2cc1OC[C@@H]1C[C@@H]2CN(C)C[C@@H]2C1 [Tesevatinib] | 16.4 | 23.9 | 1.35 | 1 | 11.5 | 0.5 | 1.9 | 13.6 | < 0 | 3.1 | 2.25 | 19.2
CCOc1ccccc1-n1c(C(C)N2CCN(C(=O)COc3ccc(Cl)cc3)CC2)nc2ccccc2c1=O (stereo not given) [Erastin] | < 0 | < 0 | 4.8 | 8.5 | 3.3 | 12.9 | 4.7 | 17 | 14.6 | 16.2 | 0.85 | < 0
CN[C@@H]1C[C@H]2O[C@@](C)([C@@H]1OC)n1c3ccccc3c3c4c(c5c6ccccc6n2c5c31)C(=O)N[C@H]4O [UCN-01] | 24 | 29.6 | 12.3 | 16.2 | 28.4 | 24.7 | 15.2 | 22.2 | 21.2 | 21.5 | 26.5 | 26.4
C[C@@]1(C(=O)Nc2ccc(F)nc2)CCCN1c1nc(Nc2cc(C3CC3)n[nH]2)c2cccn2n1 | 4.1 | 14.1 | 5.25 | 5 | 16.6 | 7.2 | 8.9 | 10.8 | 6 | 4.4 | 13.8 | 11.5
Nc1nc2cc(-c3ccc4ncc(C(=O)N5CCOCC5)n4c3)ccc2o1 [Serabelisib] | 3.1 | 5.2 | < 0 | < 0 | 9.1 | 0.8 | < 0 | 0.6 | 0.9 | 0.2 | 0.6 | 4.1
CC1(C)CC[C@]2(NC(=O)C(C)(F)F)CC[C@]3(C)[C@H](C(=O)C=C4[C@@]5(C)C=C(C#N)C(=O)C(C)(C)[C@@H]5CC[C@]43C)[C@@H]2C1 [Omaveloxolone] | 14.3 | 11.3 | 12.2 | 14.1 | 15.8 | 19.8 | 11.9 | 19.3 | 10.1 | 16.2 | 13.5 | 9.9
Cc1ccc(C(=O)Nc2ccc(CN3CCN(C)CC3)c(C(F)(F)F)c2)cc1C#Cc1cnc2cccnn12 [Ponatinib] |  |  | 7.8 | 8 |  | 10.2 | 8.3 |  | 4.7 | 6.9 |  | 
Nc1ccn([C@@H]2O[C@H](CO)[C@@H](O)[C@@H]2O)c(=O)n1 [Cytarabine] | 6 | 10.5 |  |  | 5.7 | 4.1 | < 0 | 2.1 | 13.4 | 7.2 | < 0 | 3.6
CCN(CC)CCCC(C)Nc1ccnc2cc(Cl)ccc12 (stereo not given) [Chloroquine] | 5.8 | 9 |  |  | 7.7 | 8.6 | 5.8 | 8.8 | 8.4 | 7.8 | 7.6 | 9.1
CC[C@]1(O)C[C@H]2CN(CCc3c([nH]c4ccccc34)[C@@](C(=O)OC)(c3cc4c(cc3OC)N(C=O)[C@H]3[C@@](O)(C(=O)OC)[C@H](OC(C)=O)[C@]5(CC)C=CCN6CC[C@]43[C@@H]65)C2)C1 [Vincristine] | 0.5 | 6.4 | 4.75 | 2.7 | 5 | 3.4 | 9.1 | 13.8 |  |  | 14.9 | 8.9
